Reference: BigSolDB 2.1

CC(=O)NC1CCSC1=O (stereo not given)
solubility (mole fraction)
Conditions	278.15 K	283.15 K	288.15 K	293.15 K	298.15 K	303.15 K	308.15 K	313.15 K	318.15 K	323.15 K
in 2-butoxyethanol	0.0606	0.0701	0.0776	0.0895	0.102	0.116	0.132	0.15	0.175	0.199
in 2-ethoxyethanol	0.0952	0.108	0.121	0.141	0.158	0.176	0.199	0.223	0.248	0.278
in 2-methoxyethanol	0.132	0.15	0.169	0.189	0.21	0.233	0.255	0.279	0.31	0.344
in 2-propoxyethanol	0.0753	0.0874	0.0976	0.11	0.123	0.138	0.158	0.179	0.203	0.23
in ethanol	0.0355	0.0439	0.055	0.0699	0.0866	0.107	0.132	0.164	0.201	0.243
in ethyl acetate	0.0168	0.0199	0.0235	0.0283	0.0325	0.0388	0.0455	0.0546	0.0649	0.0772
in methanol	0.0713	0.0887	0.111	0.137	0.165	0.192	0.222	0.253	0.288	0.321
in methyl acetate	0.0229	0.0271	0.033	0.0401	0.0478	0.0559	0.0673	0.081	0.0965	0.119
in n-butanol	0.0244	0.0301	0.0388	0.047	0.0574	0.0692	0.0846	0.104	0.128	0.159
in n-butyl acetate	0.0119	0.0141	0.0169	0.0194	0.0228	0.0263	0.0307	0.0364	0.0411	0.0496
in n-pentanol	0.0232	0.0294	0.0362	0.0429	0.0532	0.0646	0.0769	0.093	0.114	0.14
in n-propanol	0.0282	0.0343	0.0456	0.0553	0.0678	0.0839	0.104	0.129	0.159	0.197
in n-propyl acetate	0.0131	0.0155	0.0187	0.0217	0.0257	0.0296	0.0351	0.0411	0.0486	0.0575
